# Several values for one entry are separate records, joined by “and”; a condition that tells them apart may be missing. Equal values may be shown once. Read-outs that look alike come from different tables or passages of the source.
# Experiments:
# A375-hPD-L1 cells = assay: Cell uptake of the tracer, PD-L1+ cells; format: cell-based, human; conditions: for cell uptake after blockade by LP-F: PD-L1+ cells blocked with 25 μM LP-F; for cell uptake: PD-L1+ cells
# Procedure: (§1) Human melanoma cell line A375 (PD-L1^-) and human PD-L1 gene-transfected A375 cells (A375-hPD-L1, PD-L1^+) were cultured according to previous work.
# (§2) A375 cells and A375-hPD-L1 cells (1 × 10^6) were added to each tube, separately. [^18F]LP-F (37 kBq/tube) diluted in DMEM was added and incubated at 37 °C for different periods (30, 60, 120, and 240 min). PD-L1^+ cells were incubated with 100 μL 25 μM LP-F for 30 min ahead to block PD-L1^+ cells and then incubated with [^18F]LP-F (37 kBq/tube) at same conditions. After incubation and wash, the cells’ radioactivity was measured.
# [1] = Micro-PET imaging, non-target tissues (muscle, bone); format: in vivo, mice; conditions: up to 60 min
# Description: (§3) Female BALB/c nude mice at age of 5~7 weeks were inoculated subcutaneously with 1 × 10^6 A375-hPD-L1 cells in saline at the left flank and 1 × 10^6 A375 cells at the right flank in the same mouse in order to eliminate individual differences. Animal study can be performed in accordance with the principles laid out by the ethical committee of Jiangsu Institute of Nuclear Medicine.
# (§4) A375 (right)/A375-hPD-L1 (left) bilateral tumor-bearing mice (n = 3) were anesthetized and then intravenously injected with [^18F] LP-F (~7.4 MBq) dissolved in saline (200 μL). Dynamic scanning was performed for one hour. ASIPro software (Siemens) was applied to process the PET images. Dynamic images were reconstructed in OSEM3D/MAP algorithm and split into twelve frames. Quantification and analysis of region of interest (ROI) in tumors and organs were carried out.
# PD-L1 = target: T1, PD-L1 (Homo sapiens, UniProt Q9NZQ7); assay: Saturation binding assay on PD-L1+ cells; conditions: PD-L1+ cell, one-site model, read-out: dissociation constant (Kd)
# T1 construct: expressed in transfected cells; host or cells: A375 human melanoma cells transfected with the human PD-L1 gene (A375-hPD-L1)
# T1 sequence (Q9NZQ7 19-290): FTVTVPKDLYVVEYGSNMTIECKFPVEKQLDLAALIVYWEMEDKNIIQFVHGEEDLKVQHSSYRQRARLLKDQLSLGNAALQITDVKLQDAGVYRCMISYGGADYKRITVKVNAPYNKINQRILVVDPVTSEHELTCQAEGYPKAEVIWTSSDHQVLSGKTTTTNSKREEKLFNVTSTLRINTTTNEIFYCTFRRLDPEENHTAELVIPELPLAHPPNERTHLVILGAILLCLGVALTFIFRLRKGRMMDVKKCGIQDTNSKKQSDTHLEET
# Procedure: as §1
# PD-L1^+ cells (2 × 10^5) were added to each tube and incubated with the gradient of concentration of [^18F]LP-F dissolved in DMEM (0 to 128 nM) at 37 °C for 1 h. After incubation, the cells were centrifuged and washed by PBS twice and then were measured for radioactivity by a γ counter as total bound value. For the non-specific bound value, PD-L1^+ cells (2 × 10^5) were added to each tube and incubated with LP-F (50 μM) dissolved in DMEM for half an hour in advance and then incubated with above concentrations of [^18F]LP-F. After centrifugation and wash, the radioactivity was detected. The specific binding value is obtained by subtracting non-specific bound value from total bound value. The equilibrium dissociation constant (Kd) was calculated by non-linear fit in a one-site model through specific binding values and concentrations of [^18F]LP-F.
# A375-hPD-L1 tumor = assay: Micro-PET imaging, PD-L1+ tumor; format: in vivo, mice
# Description: as §3, §4
# A375 tumor = assay: Micro-PET imaging, PD-L1- tumor; format: in vivo, mice
# Description: as §3, §4
# [2] = In vitro stability assay in PBS (radio-HPLC); format: physicochemical; conditions: PBS pH 7.4, 37 °C, 4 h
# Procedure: (§5) In order to investigate the in vitro stability of the radioactive probe, [^18F]LP-F (~14.8 MBq, 40 μL) was incubated in PBS (pH 7.4, 360 μL) at 37 °C for 4 h. [^18F]LP-F (~14.8 MBq, 40 μL) was also mixed with mouse serum (360 μL) and maintained at 37 °C for 4 h. Such PBS solution was subjected to stability analysis using radio-HPLC at 0, 1, 2 and 4 h. A 30 μL sample from the above mouse serum after protein precipitation with 30 μL acetonitrile was also subjected to stability analysis at 0, 1, 2 and 4 h.
# [3] = In vitro stability assay in mouse serum (radio-HPLC); format: in vitro ADME; conditions: 37 °C, 4 h
# Procedure: as §5
# [4] = Partition coefficient test (1-octanol/water); format: physicochemical
# Procedure: Amounts of 0.37 MBq [^18F]LP-F, 1000 μL water and 1000 μL 1-octanol were mixed in a tube. The mixture was thoroughly shaken for 5 min. After centrifugation, 500 μL water was withdrawn from water phase and its radioactivity was measured by a gamma counter. An equal volume of 1-octanol was withdrawn from the organic phase and measured. The partition coefficient (Log P) was calculated based on Eq. Log P = Lg(Concentration of [^18F]LP-F in 1-octanol/Concentration of [^18F]LP-F in water)
# Then, 500 μL water and 500 μL 1-octanol were added to the above tube to replenish the water and the organic phase. The two-phase system was shaken again. Water and the organic phase were sampled and measured and Log P was calculated again. Repeat two more times.
# A375 cells = assay: Cell uptake of the tracer, PD-L1- cells; format: cell-based, human; conditions: 4 h
# Procedure: as §1, §2
# [5] = MTT cell viability assay, PD-L1+ cells; format: cell-based; conditions: human, A375-hPD-L1 cells (PD-L1-transfected human melanoma A375), LP-F 0-100 μM
# Procedure: as §1
# (§6) Each well was seeded with 1 × 10^4 cancer cells in 96-well plates. LP-F dissolved in DMEM with gradient concentration (0, 12.5, 25, 50 and 100 μM) was added to each well at triple parallels, respectively, and incubated for 24 h. Then, MTT (5 mg/mL, 20 μL/well) was added and incubated for 4 h. 150 μL DMSO was added each well and shaken vigorously for 10 min to dissolve MTT crystallization. The absorbance of each sample was detected at 490 nm by ELISA, and percent cell viability was calculated based on Eq.: Percentage = sample well/reference well × 100%
# [6] = MTT cell viability assay, PD-L1- cells; format: cell-based; conditions: human, A375 cells (human melanoma, PD-L1 negative), LP-F 0-100 μM
# Procedure: as §1, §6
structure (smiles),measurement,setting,value
Cc1c(COc2cc(OCc3cccc(C#N)c3)c(CN3CCN(CCOCCOCCOCC[18F])CC3)cc2Cl)cccc1-c1ccc2c(c1)OCCO2 [[^18F]LP-F],cell uptake after blockade by LP-F,A375-hPD-L1 cells; 0.5 h,1.42 ± 0.03 %AD
same,cell uptake after blockade by LP-F,A375-hPD-L1 cells; 4 h,1.72 ± 0.02 %AD
same,cell uptake,A375-hPD-L1 cells; 30 min,3.66 ± 0.20 %AD
same,cell uptake,A375-hPD-L1 cells; 4 h,3.64 ± 0.19 %AD
same,"activity on the bone (defluorination, in vivo stability)",[1],no obvious activity on the bone
same,Kd,PD-L1,226 nM
same,ratio of PD-L1+ tumor uptake to PD-L1- tumor uptake,A375-hPD-L1 tumor; 50 min,2.95 ± 0.39 times
same,tumor-to-muscle ratio (T/M),"A375-hPD-L1 tumor; PD-L1+ tumor, 30 min post injection",2.08 ± 0.38
same,maximum tumor uptake,"A375-hPD-L1 tumor; PD-L1+ tumor, 50 min",3.53 ± 0.46 %ID/mL
same,tumor-to-muscle ratio (T/M),"A375-hPD-L1 tumor; PD-L1+ tumor, 50 min",2.20 ± 0.29
same,tumor-to-muscle ratio (T/M),A375 tumor; 10 min,0.82 ± 0.24
same,tumor-to-muscle ratio (T/M),A375 tumor; 50 min,0.75 ± 0.19
same,maximum tumor uptake,A375 tumor; 60 min,1.23 ± 0.39 %ID/mL
same,tumor-to-muscle ratio (T/M),A375 tumor; all the time,below 1
same,stability in PBS,[2],high stability
same,stability in mouse serum,[3],high stability
same,logP,"[4]; mean ± SD, read-out: partition coefficient (Log P)",2.18 ± 0.16
same,Log P (single trial),[4]; trials 1-3,2.08 and 2.10
same,logP,"[4]; trials 1-3, read-out: Log P (single trial)",2.37
same,maximum cell uptake,A375 cells,1.41 ± 0.09 %AD
Cc1c(COc2cc(OCc3cccc(C#N)c3)c(CN3CCN(CCOCCOCCOCCF)CC3)cc2Cl)cccc1-c1ccc2c(c1)OCCO2 [LP-F],viability at 24 h,[5],> 90%
same,viability at 24 h,[6],> 90%

# — publication PMC9968138, “Design, Synthesis, and Biological Evaluation of a Small-Molecule PET Agent for Imaging PD-L1 Expression” (Pharmaceuticals, 2023)
